In ChEMBL document CHEMBL1250468, “Synthesis of aryl-heteroaryl ureas (AHUs) based on 4-aminoquinoline and their evaluation against the insulin-like growth factor receptor (IGF-1R)” (Bioorg Med Chem, 2010):

Each compound was assayed against Insulin-like growth factor 1 receptor (Homo sapiens, UniProt P08069) (assay: Inhibition of recombinant IGF1R by ELISA).
Chain of Insulin-like growth factor 1 receptor (P08069 31-736 limits assumed): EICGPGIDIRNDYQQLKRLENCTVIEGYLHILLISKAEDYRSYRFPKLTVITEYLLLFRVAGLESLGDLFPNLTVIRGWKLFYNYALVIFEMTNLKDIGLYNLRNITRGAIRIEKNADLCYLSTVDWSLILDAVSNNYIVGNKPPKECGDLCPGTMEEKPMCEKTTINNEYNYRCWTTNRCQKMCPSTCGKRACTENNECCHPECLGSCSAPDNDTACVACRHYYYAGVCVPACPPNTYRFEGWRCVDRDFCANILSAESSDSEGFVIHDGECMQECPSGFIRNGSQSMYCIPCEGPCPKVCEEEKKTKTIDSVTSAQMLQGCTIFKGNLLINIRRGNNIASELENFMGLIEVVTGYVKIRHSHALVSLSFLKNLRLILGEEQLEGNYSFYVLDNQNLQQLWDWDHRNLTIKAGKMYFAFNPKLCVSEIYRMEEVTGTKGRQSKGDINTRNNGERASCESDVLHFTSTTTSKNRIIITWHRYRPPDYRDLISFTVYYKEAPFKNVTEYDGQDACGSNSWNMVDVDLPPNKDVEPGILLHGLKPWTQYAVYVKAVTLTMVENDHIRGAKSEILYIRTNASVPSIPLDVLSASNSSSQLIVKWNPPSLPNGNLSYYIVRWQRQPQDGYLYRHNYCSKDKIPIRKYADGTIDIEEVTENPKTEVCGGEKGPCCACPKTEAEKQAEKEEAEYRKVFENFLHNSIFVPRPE
Chain of Insulin-like growth factor 1 receptor (P08069 741-1367 limits assumed): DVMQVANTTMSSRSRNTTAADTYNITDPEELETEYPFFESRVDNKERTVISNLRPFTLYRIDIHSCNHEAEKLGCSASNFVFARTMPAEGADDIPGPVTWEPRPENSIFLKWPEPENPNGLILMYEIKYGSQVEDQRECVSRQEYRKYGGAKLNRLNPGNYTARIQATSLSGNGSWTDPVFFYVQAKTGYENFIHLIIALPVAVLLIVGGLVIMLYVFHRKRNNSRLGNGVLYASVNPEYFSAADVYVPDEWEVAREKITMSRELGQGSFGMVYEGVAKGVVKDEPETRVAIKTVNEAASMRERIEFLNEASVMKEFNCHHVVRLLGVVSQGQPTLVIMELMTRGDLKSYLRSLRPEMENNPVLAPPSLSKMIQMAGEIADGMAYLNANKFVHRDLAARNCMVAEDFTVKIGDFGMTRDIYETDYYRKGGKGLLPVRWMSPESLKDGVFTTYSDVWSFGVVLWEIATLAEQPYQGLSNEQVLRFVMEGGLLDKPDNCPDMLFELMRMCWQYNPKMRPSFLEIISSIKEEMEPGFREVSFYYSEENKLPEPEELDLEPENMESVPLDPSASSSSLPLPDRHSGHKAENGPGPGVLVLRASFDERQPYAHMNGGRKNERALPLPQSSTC

Question: `COc1ccc(NC(=O)Nc2cc(Cl)nc3ccccc23)cc1` was tested. Which IC50 did it give?
Answer: > 30 µM

Question: For `O=C(Nc1cccc(-c2ncccn2)c1)Nc1cc(Cl)nc2ccccc12`, which IC50 is on record?
Answer: > 30 µM

Question: `COc1ccc(NC(=O)Nc2cc(C)nc3ccccc23)cc1Cl` was tested. Which IC50 did it give?
Answer: > 30 µM

Question: For `Cc1cc(NC(=O)Nc2cccc(-c3ncccn3)c2)c2ccccc2n1`, which IC50 is on record?
Answer: > 30 µM

Question: For `COc1cc(OC)c(NC(=O)Nc2cc(C)nc3cnccc23)cc1Cl`, which IC50 is on record?
Answer: > 30 µM

Question: For `Cc1cc(NC(=O)Nc2ccc(Cl)cc2)c2ccccc2n1`, which IC50 is on record?
Answer: > 30 µM

Question: `COc1ccc(Cl)cc1NC(=O)Nc1cc(C)nc2ncccc12` was tested. Which IC50 did it give?
Answer: 24.7 µM

Question: `O=C(Nc1ccc(OC(F)(F)F)cc1)Nc1cc(Cl)nc2ccccc12` was tested. Which IC50 did it give?
Answer: 21.4 µM

Question: How did the IC50 turn out when `Cc1cncc(Oc2ccc(NC(=O)Nc3cc(Cl)nc4ccccc34)cc2)n1` was run?
Answer: > 30 µM

Question: With `COc1ccc(Cl)cc1NC(=O)Nc1cc(=O)[nH]c2ccccc12` as the compound, how does the IC50 read?
Answer: 6.5 µM

Question: `Cc1cncc(Oc2ccc(NC(=O)Nc3cc(C)nc4ncccc34)cc2)n1` was tested. Which IC50 did it give?
Answer: 12.5 µM

Question: For `COc1ccc(NC(=O)Nc2cc(Cl)nc3ccccc23)cc1Cl`, which IC50 is on record?
Answer: > 30 µM

Question: Which IC50 does the source give for `COc1ccc(Cl)cc1NC(=O)Nc1cc(C)nc2ccccc12` here?
Answer: 18.7 µM

Question: For `COc1ccc(NC(=O)Nc2cc(C(F)(F)F)nc3ccccc23)cc1`, which IC50 is on record?
Answer: > 30 µM

Question: With `O=C(Nc1ccc([N+](=O)[O-])cc1)Nc1cc(C(F)(F)F)nc2ccccc12` as the compound, how does the IC50 read?
Answer: 27.1 µM

Question: With `Cc1cncc(Oc2ccc(NC(=O)Nc3cc(C)nc4ccccc34)cc2)n1` as the compound, how does the IC50 read?
Answer: 5.6 µM

Question: `COc1ccc(Cl)cc1NC(=O)Nc1cc(C)nc2c1CCCN2` was tested. Which IC50 did it give?
Answer: 20.5 µM

Question: `Cc1cncc(Oc2ccc(NC(=O)Nc3cc(C(F)(F)F)nc4ccccc34)cc2)n1` was tested. Which IC50 did it give?
Answer: 5.2 µM

Question: For `O=C(Nc1ccc(Cl)cc1)Nc1cc(C(F)(F)F)nc2ccccc12`, which IC50 is on record?
Answer: 28.1 µM

Question: With `O=C(Nc1ccc(OC(F)(F)F)cc1)Nc1cc(C(F)(F)F)nc2ccccc12` as the compound, how does the IC50 read?
Answer: 6.7 µM

Question: `O=C(Nc1cccc(-c2ncccn2)c1)Nc1cc(C(F)(F)F)nc2ccccc12` was tested. Which IC50 did it give?
Answer: > 30 µM

Question: `COc1ccc(Cl)cc1NC(=O)Nc1cc(C)nc2cnccc12` was tested. Which IC50 did it give?
Answer: > 30 µM

Question: Which IC50 does the source give for `O=C(Nc1ccc(-c2ncccn2)cc1)Nc1cc(C(F)(F)F)nc2ccccc12` here?
Answer: 19.3 µM

Question: For `COc1ccc(Cl)cc1NC(=O)Nc1cc(Cl)nc2ccccc12`, which IC50 is on record?
Answer: 14.9 µM

Question: `O=C(Nc1ccc(-c2ncccn2)cc1)Nc1cc(Cl)nc2ccccc12` was tested. Which IC50 did it give?
Answer: > 30 µM

Question: With `O=C(Nc1ccc(Cl)cc1)Nc1cc(Cl)nc2ccccc12` as the compound, how does the IC50 read?
Answer: 21.1 µM

Question: How did the IC50 turn out when `Cc1cc(NC(=O)Nc2ccc(-c3ncccn3)cc2)c2ccccc2n1` was run?
Answer: > 30 µM
